These results are taken from ChEMBL document CHEMBL5614427, “Discovery and Optimization of N-Heteroaryl Indazole LRRK2 Inhibitors” (J Med Chem, 2024).

The nature of data set [1]: Lipophilicity, logD of compound at pH 7 by shake flask based HPLC method. It is filed as physicochemical. Conditions: buffer.
Data set [2] in a line: Mean residence time in Wistar Han rat at 0.1 mg/kg, iv administered as cassette dosing measured upto 24 hrs by LC-MS/MS analysis. It is filed as ADME, organism-based. Conditions: in vivo.
Data set [3] in a line: Ratio of unbound brain to plasma drug concentration in Wistar Han rat. Conditions: read-out: K(p,uu,brain). It is filed as ADME, cell-free.
Data set [4] can be described thus: Oral bioavailability in Beagle dog at 0.5 mg/kg measured upto 24 hrs by LC-MS/MS analysis. It is filed as ADME, organism-based, Canis lupus familiaris. To be noted: in vivo.
Data set [5] can be described thus: Oral bioavailability in Wistar Han rat at 1 mg/kg measured upto 24 hrs by LC-MS/MS analysis. It is filed as ADME, organism-based. Conditions: in vivo.
The nature of data set [6]: Mean residence time in Beagle dog at 0.25 mg/kg, iv measured upto 24 hrs by LC-MS/MS analysis. It is filed as ADME, organism-based, Canis lupus familiaris. Conditions: in vivo.
Data set [7] is described as follows: AUC in rat at 100 mg/kg, po BID. To be noted: in vivo. It is filed as ADME, organism-based.
A short description of data set [8]: Mean residence time in Wistar Han rat at 2 mg/kg, iv measured upto 24 hrs by LC-MS/MS analysis. It is filed as ADME, organism-based. Conditions: in vivo.
The nature of data set [9]: Oral bioavailability in Wistar Han rat at 10 mg/kg measured upto 24 hrs by LC-MS/MS analysis. Conditions: in vivo. It is filed as ADME, organism-based.
Data set [10] is described as follows: Ratio of unbound brain to plasma drug concentration in rhesus monkey. It is filed as ADME, cell-free, Macaca mulatta. Conditions: read-out: K(p,uu,brain).
Data set [11] in a line: Ratio of unbound CSF to plasma drug concentration in rhesus monkey. It is filed as ADME, Macaca mulatta.

SMILES strings stand for the structures.

For `CCn1cc(-n2ncc3cc(Cl)c(C4CCN(C5(C)COC5)CC4)cc32)cn1`, the logD in [1] came out at 3.2. This molecule returned an MRT in data set [2] of 4 h.
`CO[C@@H]1CCN(c2cc(-n3ncc4ccc([C@]5(C)CC56CC6)cc43)ncn2)C1`: the mean residence time (MRT) in data set [2] was determined as 1 h.
In data set [1], `Cn1cc(-n2ncc3cc(Cl)c(C4CCN(C5(C)COC5)CC4)cc32)cn1` yielded a log distribution coefficient (logD) of 2.8. The MRT in data set [2] was found to be 3.4 h.
Take `Cc1nc(-n2ncc3ccc([C@]4(C#N)CC45CC5)cc32)cs1`: the Kp uu in data set [3] was determined as 0.5. The molecule also gave an MRT in data set [2] of 0.8 h.
In data set [1], `CC1(N2CCC(c3cc4c(cnn4-c4cnn(C5CC5)c4)cc3Cl)CC2)COC1` gave a logD of 3.4. The same molecule gave an MRT in data set [2] of 3.6 h.
`CC1(N2CCC(c3cc4c(cnn4-c4cnn(C(F)F)c4)cc3Cl)CC2)COC1` registered a logD in data set [1] of 3.7. Also, the MRT in data set [2] turned out to be 3.5 h.
In the case of `COCC12CC(n3cc(-n4ncc5cc(Cl)c(N6CCN(C7(C)COC7)CC6)cc54)cn3)(C1)C2`, the MRT in data set [2] amounted to 2.2 h.
Regarding `CC1(N2CCN(c3cc4c(cnn4-c4cnn(-c5ncc(F)cn5)c4)cc3Cl)CC2)COC1`, the bioavailability stood at 47% in data set [4] and 88% in [5]. Also, the logD in data set [1] was found to be 2.8. For the same molecule, the MRT in data set [6] was 17 h; in [2] it was 4.5 h.
`CC1(N2CCN(c3cc4c(cnn4-c4cnn(C56CC(C(F)F)(C5)C6)c4)cc3Cl)CC2)COC1` yielded an MRT in data set [2] of 2.7 h.
On to `C[C@@]1(N2CCN(c3cc4c(cnn4-c4cnn(C56CC(C5)C6)c4)cc3Cl)CC2)COC[C@@H]1O`, for which the MRT is 12 h in data set [6] and 5.8 h in data set [8]. In data set [7], this molecule registered an AUC of 101 µM·h. In addition, in data set [3], the Kp uu was determined as 0.4. In data set [9], the bioavailability was determined as 48%.
With `Cc1cc(-n2ncc3ccc([C@]4(C#N)CC45CC5)cc32)nc(C)n1`, in data set [3], the Kp uu amounted to 0.19. For the same molecule, the MRT in data set [2] is 1 h.
For the molecule `CC1(N2CCN(c3cc4c(cnn4-c4cnn(C56CC(C#N)(C5)C6)c4)cc3Cl)CC2)COC1`, the MRT in [2] came out at 2.9 h.
`CO[C@H]1C[C@H](n2cc(-n3ncc4cc(Cl)c(C5CCN(C6(C)COC6)CC5)cc43)cn2)C1` displayed a logD in data set [1] of 3.5. This molecule also showed an MRT in data set [2] of 4.1 h.
As to `CC1(N2CCN(c3cc4c(cnn4-c4cnn(C56CC(C5)C6)c4)cc3Cl)CC2)COC1`, the MRT in [2] was determined as 3.4 h.
`CC1(N2CCC(c3cc4c(cnn4-c4cnn(-c5ncc(F)cn5)c4)cc3Cl)CC2)COC1` displayed a log distribution coefficient (logD) in [1] of 3.3. This molecule also yielded an MRT in data set [2] of 3.3 h.
Regarding `Cn1ccc(-n2ncc3ccc([C@]4(C#N)CC45CC5)cc32)n1`, the Kp uu in data set [3] amounted to 1. The molecule further displayed an MRT in [2] of 0.8 h.
As for `Cn1cc(-n2ncc3cc(Cl)c(C4CCN(C5COC5)CC4)cc32)cn1`, the bioavailability in [4] was found to be 59%; in [5], 77%. The MRT in data set [6] and in data set [2] was 2.1 h each time. For the same molecule, the Kp uu is 0.4 in data set [3], 0.9 in data set [10] and 1 in data set [11].
`COC12CC(n3cc(-n4ncc5cc(Cl)c(N6CCN(C7(C)COC7)CC6)cc54)cn3)(C1)C2` came in with an MRT in [2] of 3.2 h.
Same read-out and setting: next, `CC1(N2CCN(c3cc4c(cnn4-c4cnn(C5CC5)c4)cc3Cl)CC2)CCOC1` (stereo not given): 3.2 h.
On the same count and under the same terms, next, `C[C@@]1(N2CCN(c3cc4c(cnn4-c4cnn(C5CC5)c4)cc3Cl)CC2)COC[C@@H]1O`: 2.5 h; `Cn1ccc(-n2ncc3cc(Cl)c(C4CCN(C5COC5)CC4)cc32)n1`: 1.5 h; `CC1(N2CCN(c3cc4c(cnn4-c4cnn(C5CC5)c4)cc3Cl)CC2)COC1`: 2.8 h.
